The results in this text go back to PubChem BioAssay AID624129 (Sanford-Burnham Center for Chemical Genomics, 2012).

Assay in all cases: CXCR6 receptor antagonists, dose response, cell-based, beta-arrestin, DiscoveRx, APJ panel, uHTS hits (AID 624129)
The target of test [1] is C-X-C chemokine receptor type 6 (Homo sapiens) (UniProt O00574). The settings on record: CXCR6 beta-arrestin (DiscoveRx) antagonist cell assay; for inhibition: CXCR6, run 1, dose range 2, at 80 µM (top of the series).
Test [2] has as its target Beta-galactosidase (Escherichia coli) (UniProt Q8VNN2). The conditions noted are these: CXCR6 beta-arrestin (DiscoveRx) antagonist cell assay, b-galactosidase.
For test [3], the target named is C-C chemokine receptor type 6 (Homo sapiens) (UniProt P51684). The conditions noted are these: CXCR6 beta-arrestin (DiscoveRx) antagonist cell assay.
Test [4] concerns the target Apelin receptor (Homo sapiens) (UniProt P35414). The conditions noted are these: CXCR6 beta-arrestin (DiscoveRx) antagonist cell assay, APJ.
The mark [5] stands for this setting: CXCR6, dose range 1, mean IC50 across replicates.
The mark [6] stands for this setting: dose range 1, mean IC50 across replicates.
[7] abbreviates: CCR6, dose range 1, mean IC50 across replicates.

Calls of active or inactive are those of the source. How the calls were made is not given here.

Chain of Beta-galactosidase (Escherichia coli) (Q8VNN2 whole entry, looked up): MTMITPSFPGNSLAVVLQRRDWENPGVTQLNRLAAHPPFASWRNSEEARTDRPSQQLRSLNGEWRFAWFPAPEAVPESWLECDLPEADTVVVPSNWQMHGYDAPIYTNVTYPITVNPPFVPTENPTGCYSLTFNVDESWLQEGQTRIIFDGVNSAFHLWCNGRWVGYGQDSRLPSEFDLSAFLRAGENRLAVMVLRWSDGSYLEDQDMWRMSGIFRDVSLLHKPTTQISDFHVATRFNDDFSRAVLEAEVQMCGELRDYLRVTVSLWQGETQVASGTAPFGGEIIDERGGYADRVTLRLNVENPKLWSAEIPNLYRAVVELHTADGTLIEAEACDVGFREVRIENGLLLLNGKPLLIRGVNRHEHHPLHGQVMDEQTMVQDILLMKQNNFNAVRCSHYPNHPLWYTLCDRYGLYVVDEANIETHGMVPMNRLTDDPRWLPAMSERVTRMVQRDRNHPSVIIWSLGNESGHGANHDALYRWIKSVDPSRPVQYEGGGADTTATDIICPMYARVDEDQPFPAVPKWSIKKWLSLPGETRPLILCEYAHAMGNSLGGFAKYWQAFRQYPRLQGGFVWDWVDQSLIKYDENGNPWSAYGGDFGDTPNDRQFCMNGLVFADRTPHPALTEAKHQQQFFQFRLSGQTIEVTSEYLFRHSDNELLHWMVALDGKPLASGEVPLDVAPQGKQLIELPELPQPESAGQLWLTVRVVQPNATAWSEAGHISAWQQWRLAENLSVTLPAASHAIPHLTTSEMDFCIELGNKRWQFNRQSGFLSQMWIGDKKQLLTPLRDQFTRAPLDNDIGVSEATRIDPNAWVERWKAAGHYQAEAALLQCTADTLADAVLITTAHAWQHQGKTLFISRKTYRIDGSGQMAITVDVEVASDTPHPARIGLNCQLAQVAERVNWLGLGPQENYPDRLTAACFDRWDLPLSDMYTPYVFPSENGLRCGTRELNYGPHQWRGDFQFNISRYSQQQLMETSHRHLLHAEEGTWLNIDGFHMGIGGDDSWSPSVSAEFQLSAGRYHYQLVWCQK
Chain of C-X-C chemokine receptor type 6 (Homo sapiens) (O00574 whole entry, looked up): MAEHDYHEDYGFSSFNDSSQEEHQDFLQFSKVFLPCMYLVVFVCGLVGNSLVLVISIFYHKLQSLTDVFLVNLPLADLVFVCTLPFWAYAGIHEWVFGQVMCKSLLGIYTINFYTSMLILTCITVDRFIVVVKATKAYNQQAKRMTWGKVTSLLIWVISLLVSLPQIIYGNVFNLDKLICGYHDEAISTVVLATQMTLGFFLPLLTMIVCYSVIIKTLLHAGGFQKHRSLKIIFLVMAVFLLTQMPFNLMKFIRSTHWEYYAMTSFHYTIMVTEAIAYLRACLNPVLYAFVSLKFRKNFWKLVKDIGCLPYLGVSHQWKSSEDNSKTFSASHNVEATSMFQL

Usually IC50 stands for the point on the concentration scale where inhibition reaches its midpoint. For the compound `Cc1c(Cl)sn(-c2ccc(Cl)cc2)c1=O`, the IC50 is 8.91 µM in test [1] (CXCR6, dose range 1); 9.37 µM in test [1] (setting [5]); 11.2 µM in test [1] (CXCR6, run 1, dose range 2); 7.95 µM in test [1] (CXCR6, run 2, dose range 1); 9.39 µM in test [1] (CXCR6, run 2, dose range 2); > 80 µM (inactive) in test [2] (dose range 1). Besides, the IC50 in test [2] (setting [6]) is above 80 µM; in test [3] (CCR6, dose range 1), 3.26 µM; in test [3] (setting [7]), 3.71 µM; in test [3] (CCR6, run 2, dose range 1), 4.17 µM; in test [4] (dose range 1), 16.4 µM; in test [4] (setting [6]) it was 22.8 µM. In addition, the IC50 came to 14.4 µM in test [4] (run 2, dose range 1) and 37.5 µM in test [4] (run 3, dose range 1).
Consider `CC(Oc1cccc(Cl)c1)C(=O)Nc1nc(-c2ccccn2)cs1` (stereo not given), for which the IC50 was 8.97 µM in test [1] (CXCR6, dose range 1); 7.17 µM in test [1] (setting [5]); 5.61 µM in test [1] (CXCR6, run 1, dose range 2); 7.93 µM in test [1] (CXCR6, run 2, dose range 1); 6.18 µM in test [1] (CXCR6, run 2, dose range 2); > 80 µM (inactive) in test [2] (dose range 1). The IC50 in test [2] (setting [6]) was above 80 µM; in test [3] (CCR6, dose range 1), 6.82 µM; in test [3] (setting [7]), 7.6 µM; in test [3] (CCR6, run 2, dose range 1), 8.37 µM; in test [4] (dose range 1) it was 8.02 µM; in test [4] (setting [6]), 8.47 µM. For the same compound, the IC50 in test [4] (run 2, dose range 1) was 8.75 µM; in test [4] (run 3, dose range 1) it was 8.64 µM.
With `CC(Oc1ccc(F)cc1)C(=O)Nc1nc(-c2ccccn2)cs1` (stereo not given), the half-maximal inhibitory concentration (IC50) was 8.77 µM in test [1] (CXCR6, dose range 1); 7.74 µM in test [1] (setting [5]); 5.99 µM in test [1] (CXCR6, run 1, dose range 2); 8.41 µM in test [1] (CXCR6, run 2, dose range 1); 7.81 µM in test [1] (CXCR6, run 2, dose range 2); > 80 µM (inactive) in test [2] (dose range 1). In addition, the IC50 in test [2] (setting [6]) is above 80 µM; in test [3] (CCR6, dose range 1) it was 7.82 µM; in test [3] (setting [7]), 8.7 µM; in test [3] (CCR6, run 2, dose range 1) it was 9.57 µM; in test [4] (dose range 1), 9.28 µM; in test [4] (setting [6]), 9.34 µM. In addition, the IC50 in test [4] (run 2, dose range 1) was 8.14 µM; in test [4] (run 3, dose range 1), 10.6 µM.
As usually defined, the inhibition is the change of the read-out against control, counted positive when it falls. Consider `CC(C)(C)C(=O)NC(=S)NNC(=O)c1sc2ccccc2c1Cl`, for which the IC50 in test [1] (CXCR6, dose range 1) was > 80 µM (inactive); in test [1] (setting [5]), above 80 µM; in test [1] (CXCR6, run 2, dose range 1), above 80 µM; in test [2] (dose range 1), > 80 µM (inactive); in test [2] (setting [6]), above 80 µM; in test [3] (setting [7]), 34 µM. Further, the half-maximal inhibitory concentration (IC50) in test [3] (CCR6, run 2, dose range 1) is 34 µM; in test [4] (dose range 1), 24.4 µM; in test [4] (setting [6]), 18.1 µM; in test [4] (run 2, dose range 1), 15.2 µM; in test [4] (run 3, dose range 1), 14.7 µM. In test [1], the inhibition was 63.6%.
As for `CN(CCO)c1cc(Sc2nc3ccccc3s2)c2nonc2c1[N+](=O)[O-]`, the IC50 in test [1] (CXCR6, dose range 1) was 6.85 µM; in test [1] (setting [5]), 7.46 µM; in test [1] (CXCR6, run 1, dose range 2) it was 8.56 µM; in test [1] (CXCR6, run 2, dose range 1), 6.34 µM; in test [1] (CXCR6, run 2, dose range 2), 8.1 µM; in test [2] (dose range 1), 25.6 µM. For the same compound, the IC50 was 25.6 µM in test [2] (setting [6]); 6 µM in test [3] (CCR6, dose range 1); 5.65 µM in test [3] (setting [7]); 5.3 µM in test [3] (CCR6, run 2, dose range 1); 10.3 µM in test [4] (dose range 1); 8.8 µM in test [4] (setting [6]). Besides, the IC50 was 7.74 µM in test [4] (run 2, dose range 1) and 8.35 µM in test [4] (run 3, dose range 1).
With `C/C(=N\NC(=O)C1COc2ccccc2O1)c1ccccn1` (stereo not given), the IC50 result in test [1] (CXCR6, dose range 1) is “inactive”. Besides, the IC50 in test [1] (setting [5]) was 15.5 µM; in test [1] (CXCR6, run 1, dose range 2), 3.86 µM; in test [1] (CXCR6, run 2, dose range 1), 12.6 µM; in test [1] (CXCR6, run 2, dose range 2), 3.74 µM; in test [2] (dose range 1), > 80 µM (inactive); in test [2] (setting [6]), above 80 µM. In addition, the IC50 is 3.22 µM in test [3] (CCR6, dose range 1); 3.87 µM in test [3] (setting [7]); 4.51 µM in test [3] (CCR6, run 2, dose range 1); 5.83 µM in test [4] (dose range 1); 5.59 µM in test [4] (setting [6]); 4.73 µM in test [4] (run 2, dose range 1). Besides, in test [4] (run 3, dose range 1), the IC50 was found to be 6.22 µM.
As to `Cc1ccnc(N2C(=O)c3cccc4c([N+](=O)[O-])ccc(c34)C2=O)c1`, the IC50 in test [1] (CXCR6, dose range 1) is 4.5 µM; in test [1] (setting [5]), 3.54 µM; in test [1] (CXCR6, run 2, dose range 1), 2.58 µM; in test [2] (dose range 1) it was > 80 µM (inactive); in test [2] (setting [6]), above 80 µM; in test [3] (CCR6, dose range 1) it was 2.2 µM. In addition, the IC50 in test [3] (setting [7]) is 2.6 µM; in test [3] (CCR6, run 2, dose range 1), 3 µM; in test [4] (dose range 1) it was 4.63 µM; in test [4] (setting [6]), 5.01 µM; in test [4] (run 2, dose range 1), 5.47 µM; in test [4] (run 3, dose range 1) it was 4.92 µM. Also, the inhibition in test [1] stood at 129%.
